According to ChEMBL document CHEMBL3108745, “Synthesis and structure-activity relationship of 3-hydroxypyridine-2-thione-based histone deacetylase inhibitors” (J Med Chem, 2013):
pIC50: −log10 of the molar value. Calls of active or inactive are those of the source. The rule behind the calls is not given here.

Assays:
[1] = target: Matrix metalloproteinase-14 (Homo sapiens) (UniProt P50281); test: Inhibition of MMP-14 (unknown origin) using omniMMP as fluorogenic substrate at 10 uM preincubated for 30 mins followed by substrate addition measured after 30 mins by fluorescence assay
[2] = target: T1, Protein deacetylase HDAC6 (Homo sapiens) (UniProt Q9UBN7); test: Inhibition of HDAC6 in human LNCAP cells assessed as increase in tubulin acetylation at 5.43 to 20 uM after 4 hrs by Western blotting analysis; assay type: cell-based
T1 sequence (whole entry): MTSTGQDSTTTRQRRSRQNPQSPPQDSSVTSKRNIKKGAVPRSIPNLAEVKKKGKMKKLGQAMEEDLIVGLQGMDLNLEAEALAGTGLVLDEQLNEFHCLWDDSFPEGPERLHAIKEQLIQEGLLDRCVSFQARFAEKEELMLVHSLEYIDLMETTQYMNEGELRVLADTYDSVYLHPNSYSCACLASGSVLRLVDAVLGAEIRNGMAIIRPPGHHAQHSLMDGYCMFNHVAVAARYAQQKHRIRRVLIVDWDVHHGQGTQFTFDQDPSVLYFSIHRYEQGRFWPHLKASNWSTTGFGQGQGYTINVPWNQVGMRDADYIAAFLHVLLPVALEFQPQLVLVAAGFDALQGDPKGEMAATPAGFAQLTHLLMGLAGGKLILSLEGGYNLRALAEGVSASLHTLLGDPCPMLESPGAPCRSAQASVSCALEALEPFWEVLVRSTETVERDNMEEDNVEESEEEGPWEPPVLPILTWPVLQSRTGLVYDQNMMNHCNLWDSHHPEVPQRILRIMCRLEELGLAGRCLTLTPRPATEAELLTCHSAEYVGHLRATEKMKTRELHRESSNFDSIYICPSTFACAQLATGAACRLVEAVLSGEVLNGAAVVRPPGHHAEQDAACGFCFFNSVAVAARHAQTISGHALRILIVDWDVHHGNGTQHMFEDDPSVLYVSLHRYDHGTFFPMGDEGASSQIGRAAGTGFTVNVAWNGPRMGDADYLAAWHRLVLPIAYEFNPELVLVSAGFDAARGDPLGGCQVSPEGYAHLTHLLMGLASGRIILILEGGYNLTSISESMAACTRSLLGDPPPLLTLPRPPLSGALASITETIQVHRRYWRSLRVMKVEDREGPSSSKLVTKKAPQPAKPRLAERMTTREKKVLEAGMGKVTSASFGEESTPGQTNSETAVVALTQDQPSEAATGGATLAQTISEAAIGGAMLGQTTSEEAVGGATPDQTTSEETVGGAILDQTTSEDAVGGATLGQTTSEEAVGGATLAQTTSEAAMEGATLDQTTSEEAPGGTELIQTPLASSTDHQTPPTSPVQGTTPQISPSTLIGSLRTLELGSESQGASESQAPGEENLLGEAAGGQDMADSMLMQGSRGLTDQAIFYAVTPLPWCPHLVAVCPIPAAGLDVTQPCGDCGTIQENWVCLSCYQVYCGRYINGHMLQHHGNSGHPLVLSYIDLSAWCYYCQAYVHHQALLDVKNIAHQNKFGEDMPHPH

[3] = Aqueous solubility of the compound […] at room temperature by UV-vis spectrophotometric analysis; assay type: physicochemical
[4] = target: Stromelysin-1 (Homo sapiens) (UniProt P08254); test: Inhibition of MMP-3 (unknown origin) using omniMMP as fluorogenic substrate at 10 uM preincubated for 30 mins followed by substrate addition measured after 30 mins by fluorescence assay
Sequence of Stromelysin-1 (Homo sapiens) (P08254 100-477 limits assumed): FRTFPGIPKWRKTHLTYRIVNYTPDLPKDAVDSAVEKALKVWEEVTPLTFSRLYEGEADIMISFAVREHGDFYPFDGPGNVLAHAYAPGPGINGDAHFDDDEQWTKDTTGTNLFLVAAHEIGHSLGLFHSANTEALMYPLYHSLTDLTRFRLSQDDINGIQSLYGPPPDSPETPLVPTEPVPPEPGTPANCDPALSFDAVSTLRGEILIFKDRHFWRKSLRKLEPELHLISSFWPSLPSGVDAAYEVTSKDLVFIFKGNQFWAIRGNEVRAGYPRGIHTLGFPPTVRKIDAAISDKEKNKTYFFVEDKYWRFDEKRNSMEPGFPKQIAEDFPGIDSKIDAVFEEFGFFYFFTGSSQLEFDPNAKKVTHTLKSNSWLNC

[5] = target: 72 kDa type IV collagenase (Homo sapiens) (UniProt P08253); test: Inhibition of MMP-2 (unknown origin) using omniMMP as fluorogenic substrate at 10 uM preincubated for 30 mins followed by substrate addition measured after 30 mins by fluorescence assay
Sequence of 72 kDa type IV collagenase (Homo sapiens) (P08253 110-660 limits assumed): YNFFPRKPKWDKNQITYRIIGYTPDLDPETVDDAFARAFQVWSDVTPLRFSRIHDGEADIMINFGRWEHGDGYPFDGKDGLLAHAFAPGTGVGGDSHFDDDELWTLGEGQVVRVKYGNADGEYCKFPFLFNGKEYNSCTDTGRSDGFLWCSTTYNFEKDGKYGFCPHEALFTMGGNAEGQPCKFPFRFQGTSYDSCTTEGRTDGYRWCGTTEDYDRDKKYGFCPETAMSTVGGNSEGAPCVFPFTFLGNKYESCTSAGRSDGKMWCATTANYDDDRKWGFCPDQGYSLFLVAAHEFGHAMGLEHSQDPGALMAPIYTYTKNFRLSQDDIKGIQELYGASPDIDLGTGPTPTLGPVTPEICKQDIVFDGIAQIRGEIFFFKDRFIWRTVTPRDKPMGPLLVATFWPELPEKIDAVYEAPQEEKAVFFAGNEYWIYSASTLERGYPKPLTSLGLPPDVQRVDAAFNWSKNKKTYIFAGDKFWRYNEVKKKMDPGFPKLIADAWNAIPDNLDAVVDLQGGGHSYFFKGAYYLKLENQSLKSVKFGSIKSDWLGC

Jurkat = test: cells; assay type: functional, cell-based; conditions: Homo sapiens, 72 h
Description: Cytotoxicity against human Jurkat cells assessed as growth inhibition after 72 hrs by MTS assay

[6] = target: Matrix metalloproteinase-9 (Homo sapiens) (UniProt P14780); test: Inhibition of MMP-9 (unknown origin) using omniMMP as fluorogenic substrate at 10 uM preincubated for 30 mins followed by substrate addition measured after 30 mins by fluorescence assay
Sequence of Matrix metalloproteinase-9 (Homo sapiens) (P14780 whole entry): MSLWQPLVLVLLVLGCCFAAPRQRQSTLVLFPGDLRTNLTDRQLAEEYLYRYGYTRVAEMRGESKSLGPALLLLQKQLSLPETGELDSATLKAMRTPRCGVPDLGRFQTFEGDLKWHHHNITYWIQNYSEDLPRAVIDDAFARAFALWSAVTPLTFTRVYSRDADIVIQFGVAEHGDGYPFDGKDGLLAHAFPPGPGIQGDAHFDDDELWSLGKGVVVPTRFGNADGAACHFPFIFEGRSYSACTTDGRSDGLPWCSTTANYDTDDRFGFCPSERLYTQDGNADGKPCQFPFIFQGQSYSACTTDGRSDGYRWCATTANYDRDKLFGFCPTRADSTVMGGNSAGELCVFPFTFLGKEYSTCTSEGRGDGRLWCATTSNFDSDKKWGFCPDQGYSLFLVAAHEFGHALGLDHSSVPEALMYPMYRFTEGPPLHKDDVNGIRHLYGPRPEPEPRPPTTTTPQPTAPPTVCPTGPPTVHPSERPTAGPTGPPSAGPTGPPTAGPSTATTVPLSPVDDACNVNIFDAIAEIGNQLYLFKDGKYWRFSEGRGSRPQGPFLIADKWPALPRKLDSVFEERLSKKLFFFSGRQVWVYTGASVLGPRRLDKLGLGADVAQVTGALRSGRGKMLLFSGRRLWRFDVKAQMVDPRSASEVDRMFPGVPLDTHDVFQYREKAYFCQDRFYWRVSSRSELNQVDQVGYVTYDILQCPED

[7] = target: T2, Matrilysin (Homo sapiens) (UniProt P09237); test: Inhibition of MMP-7 (unknown origin) using omniMMP as fluorogenic substrate at 10 uM preincubated for 30 mins followed by substrate addition measured after 30 mins by fluorescence assay
T2 sequence (whole entry): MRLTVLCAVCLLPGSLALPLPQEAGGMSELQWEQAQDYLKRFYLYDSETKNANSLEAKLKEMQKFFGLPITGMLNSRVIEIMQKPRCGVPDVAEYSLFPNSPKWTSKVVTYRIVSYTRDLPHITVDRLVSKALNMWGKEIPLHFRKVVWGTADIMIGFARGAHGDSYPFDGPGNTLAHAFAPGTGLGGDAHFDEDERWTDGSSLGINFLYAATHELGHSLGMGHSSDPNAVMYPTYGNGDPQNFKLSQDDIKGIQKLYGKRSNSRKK

Histone deacetylase 8 = target: T3, Histone deacetylase 8 (Homo sapiens, UniProt Q9BY41); test: Inhibition of HDAC8 catalytic domain (unknown origin) expressed in Escherichia coli BL21 (DE3) using GRKacFGC as substrate after 60 mins by SAMDI mass spectrometric analysis
T3 sequence (Q9BY41 whole entry): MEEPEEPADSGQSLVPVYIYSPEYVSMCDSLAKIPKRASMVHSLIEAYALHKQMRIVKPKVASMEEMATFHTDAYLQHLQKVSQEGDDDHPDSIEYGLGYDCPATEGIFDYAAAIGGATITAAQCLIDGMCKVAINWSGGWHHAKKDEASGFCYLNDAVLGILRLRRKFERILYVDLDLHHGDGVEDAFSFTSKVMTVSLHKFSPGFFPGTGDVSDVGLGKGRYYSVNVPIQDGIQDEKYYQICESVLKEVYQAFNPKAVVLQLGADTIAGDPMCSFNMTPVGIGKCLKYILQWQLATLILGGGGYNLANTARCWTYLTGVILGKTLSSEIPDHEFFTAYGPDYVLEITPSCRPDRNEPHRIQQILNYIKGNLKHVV

[8] = target: Histone deacetylase 1 (Homo sapiens) (UniProt Q13547); test: Inhibition of HDAC1 (unknown origin) expressed in Escherichia coli BL21 (DE3) using GRKacFGC as substrate at 10 uM after 60 mins by SAMDI mass spectrometric analysis relative to control
Sequence of Histone deacetylase 1 (Homo sapiens) (Q13547 whole entry): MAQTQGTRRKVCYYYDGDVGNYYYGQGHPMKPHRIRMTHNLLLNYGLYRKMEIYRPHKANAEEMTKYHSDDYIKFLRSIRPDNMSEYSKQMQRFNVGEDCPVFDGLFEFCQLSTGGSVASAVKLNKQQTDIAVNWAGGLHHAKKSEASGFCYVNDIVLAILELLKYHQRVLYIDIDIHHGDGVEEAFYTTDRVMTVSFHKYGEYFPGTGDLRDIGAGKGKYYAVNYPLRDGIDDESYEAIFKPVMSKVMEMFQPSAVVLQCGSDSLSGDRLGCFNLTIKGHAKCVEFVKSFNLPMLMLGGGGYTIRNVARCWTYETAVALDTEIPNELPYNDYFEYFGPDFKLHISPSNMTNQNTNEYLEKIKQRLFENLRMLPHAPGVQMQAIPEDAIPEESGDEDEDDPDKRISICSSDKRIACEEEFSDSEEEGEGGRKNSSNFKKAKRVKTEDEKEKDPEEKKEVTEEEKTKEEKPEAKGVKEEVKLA

LNCaP [9] = test: Potency index, ratio of tubastatin A IC50 to compound IC50 for human LNCAP cells; assay type: functional
LNCaP [10] = test: cells; conditions: Homo sapiens, 72 h
Description: Cytotoxicity against androgen-dependent human LNCAP cells assessed as growth inhibition after 72 hrs by MTS assay

Vero = test: Cytotoxicity against African green monkey Vero cells assessed as growth inhibition after 72 hrs by MTS assay; assay type: cell-based; conditions: Chlorocebus sabaeus
[11] = target: T4, Protein deacetylase HDAC6 (Homo sapiens, UniProt Q9UBN7); test: Inhibition of HDAC6 (unknown origin) expressed in Escherichia coli BL21 (DE3) using GRKacYGC as substrate after 60 mins by SAMDI mass spectrometric analysis
T4 sequence (Q9UBN7 whole entry): T1 sequence (whole entry)

DU-145 = test: cells; assay type: functional, cell-based; conditions: Homo sapiens, DU-145, 72 h
Description: Cytotoxicity against androgen-independent human DU145 cells assessed as growth inhibition after 72 hrs by MTS assay

[12] = Cytotoxicity against human Jurkat gamma1 cells assessed as growth inhibition after 72 hrs by MTS assay; assay type: functional, cell-based
[13] = target: Collagenase 3 (Homo sapiens) (UniProt P45452); test: Inhibition of MMP-13 (unknown origin) using omniMMP as fluorogenic substrate at 10 uM preincubated for 30 mins followed by substrate addition measured after 30 mins by fluorescence assay
Histone deacetylase 2 = Histone deacetylase 2 (Homo sapiens, UniProt Q92769); test: Inhibition of HDAC2 (unknown origin) expressed in Escherichia coli BL21 (DE3) using GRKacYGC as substrate after 60 mins by SAMDI mass spectrometric analysis
Sequence of Histone deacetylase 2 (Q92769 whole entry): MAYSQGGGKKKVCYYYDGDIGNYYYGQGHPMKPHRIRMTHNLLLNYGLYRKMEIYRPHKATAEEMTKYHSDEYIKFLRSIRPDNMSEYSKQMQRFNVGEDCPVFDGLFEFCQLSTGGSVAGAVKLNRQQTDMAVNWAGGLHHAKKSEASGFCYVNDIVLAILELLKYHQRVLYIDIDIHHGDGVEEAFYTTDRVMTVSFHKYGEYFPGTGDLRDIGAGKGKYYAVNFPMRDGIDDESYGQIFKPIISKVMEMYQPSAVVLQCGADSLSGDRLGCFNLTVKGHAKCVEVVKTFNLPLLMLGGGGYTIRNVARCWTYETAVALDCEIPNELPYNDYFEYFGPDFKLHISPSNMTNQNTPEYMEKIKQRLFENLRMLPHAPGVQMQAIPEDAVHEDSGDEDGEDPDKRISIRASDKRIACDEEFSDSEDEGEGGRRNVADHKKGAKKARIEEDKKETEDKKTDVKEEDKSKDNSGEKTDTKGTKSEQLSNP

[14] = target: T5, Interstitial collagenase (Homo sapiens) (UniProt P03956); test: Inhibition of MMP-1 (unknown origin) using omniMMP as fluorogenic substrate at 10 uM preincubated for 30 mins followed by substrate addition measured after 30 mins by fluorescence assay
T5 sequence (whole entry): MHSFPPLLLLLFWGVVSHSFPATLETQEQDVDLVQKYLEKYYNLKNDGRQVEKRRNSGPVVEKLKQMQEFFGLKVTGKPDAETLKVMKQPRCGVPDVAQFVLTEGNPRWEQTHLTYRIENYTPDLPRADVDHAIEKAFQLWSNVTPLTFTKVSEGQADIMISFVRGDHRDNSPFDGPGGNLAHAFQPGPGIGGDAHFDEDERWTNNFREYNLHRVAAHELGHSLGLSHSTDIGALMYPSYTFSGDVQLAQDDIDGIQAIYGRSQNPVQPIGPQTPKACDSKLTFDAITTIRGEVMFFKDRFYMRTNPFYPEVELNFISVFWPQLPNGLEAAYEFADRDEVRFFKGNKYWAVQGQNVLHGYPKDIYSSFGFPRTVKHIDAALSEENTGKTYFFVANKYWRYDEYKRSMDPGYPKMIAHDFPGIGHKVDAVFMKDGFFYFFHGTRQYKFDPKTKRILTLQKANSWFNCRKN

[15] = target: T1, Protein deacetylase HDAC6 (Homo sapiens); test: Inhibition of HDAC6 in human LNCAP cells assessed as increase in tubulin acetylation at 3.49 to 20 uM after 4 hrs by Western blotting analysis; assay type: cell-based

inhibition [1]	inhibition [2]	solubility [3]	inhibition [4]	inhibition [5]	pIC50 (Jurkat)	inhibition [6]	inhibition [7]	pIC50 (Histone deacetylase 8)	inhibition [8] [%]	pIC50 (LNCaP [10])	pIC50 [11]	pIC50 (DU-145)	inhibition [13]	pIC50 (Histone deacetylase 2)	inhibition [14]	inhibition [15]	SMILES	Ratio IC50 (LNCaP [9])	pIC50 (Vero)	pIC50 [12]
inactive	Active	soluble	inactive	inactive	5.49	inactive	inactive	6.04	< 20	5.27	6.04	5.03	Active	5.23	inactive	–	Oc1cccn(CCCCCn2cc(-c3ccccc3)nn2)c1=S	2	< 4.70	5.73
inactive	–	soluble	inactive	inactive	5.46	inactive	inactive	–	< 20	5.46	–	5.30	Active	5.43	inactive	Active	N#Cc1cccc(-c2cn(CCCCCn3cccc(O)c3=S)nn2)c1	3.1	< 4.70	6.05
